# Experimental data reported in US6872745B2, “Antipicornaviral compounds and compositions, their pharmaceutical uses, and materials for their synthesis” (Agouron Pharmaceuticals, Inc., priority 2000, dated 2005).
# Tests used:
# H1-HeLa cells = test: Cytotoxicity in mock-infected cells of the antirhinoviral assay (XTT); assay type: cell-based
# Protocol: (§1) In this cell protection assay, the ability of compounds to protect cells against HRV infection was measured by the XTT dye reduction method, which is described in Weislow et al., J. Natl. Cancer Inst. (1989), vol. 81, 577-586. H1-HeLa cells were infected with HRV-14 at a multiplicity of infection (m.o.i.) of 0.13 (virus particles/cell) or mock-infected with medium only. Infected or mock-infected cells were resuspended at 8×10^5 cells per ml, and incubated with appropriate concentrations of the compounds to be tested. Two days later, XTT/PMS was added to test plates and the amount of formazan produced was quantified spectrophotometrically at 450/650 nm. The EC50 value was calculated as the concentration of compound that increased the percentage of formazan production in compound-treated, virus-infected cells to 50% of that produced by compound-free, mock-infected cells. The 50% cytotoxic dose (CC50) was calculated as the concentration of compound that decreased the percentage of formazan produced in compound-treated, mock-infected cells to 50% of that produced by compound-free, mock-infected cells. The therapeutic index (TI) was calculated by dividing the CC50 value by the EC50 value.
# (§2) All strains of human rhinovirus (HRV) for use in this assay were purchased from American Type Culture Collection (ATCC), except for HRV serotype-14 (produced from the infectious cDNA clone constructed by Dr. Robert Rueckert, Institute for Molecular Virology, University of Wisconsin, Madison, Wis.). HRV stocks were propagated and viral assays were performed in H1-HeLa cells (ATCC). Cells were grown in minimal essential medium with 10% fetal bovine serum, available from Life Technologies (Gaithersburg, Md.).
# [1] = as above; assay type: cell-based; details: human, H1-HeLa cells
# Protocol: as §1, §2
# [2] = target: T1, rhinovirus 3C protease, serotype 14 (Human rhinovirus 14, UniProt P03303); test: Inhibition of rhinovirus 3C protease (FRET assay, enzyme start); assay type: biochemical; details: HRV-14 3C protease, progress curves, read-out: Kobs/I
# T1 construct: Recombinant rhinovirus 3C proteases; made in house
# Protocol: Stock solutions (50 mM, in DMSO) of various compounds were prepared; dilutions were in the same solvent. Recombinant rhinovirus 3C proteases (see Birch et al., “Purification of recombinant human rhinovirus 14 3C protease expressed in Escherichia coli,” Protein Expr. Pur. (1995), vol. 6(5), 609-618) from serotypes 14, 16, and 2 were prepared by the following standard chromatographic procedures: (1) ion exchange using Q Sepharose Fast Flow from Pharmacia; (2) affinity chromatography using Affi-Gel Blue from Biorad; and (3) sizing using Sephadex G-100 from Pharmacia. Each assay sample contained 2% DMSO, 50 mM tris pH 7.6, 1 mM EDTA, a test compound at the indicated concentration, approximately 1 μM substrate, and 50-100 nM protease. The kobs/I values were obtained from reactions initiated by addition of enzyme rather than substrate. RVP activity was measured in the fluorescence resonance energy transfer assay. The substrate was (N-terminal) DABCYL-(Gly-Arg-Ala-Val-Phe-Gln-Gly-Pro-Val-Gly)-EDANS. In the uncleaved peptide, the EDANS fluorescence was quenched by the proximal DABCYL moiety. When the peptide was cleaved, the quenching was relieved, and activity was measured as an increase in fluorescence signal. The tabulated data in the column designated kobs/[I] were measured from progress curves in enzyme start experiments.
# HRV-25 = test: Antirhinoviral H1-HeLa cell culture assay (XTT cell protection); assay type: cell-based; details: Human rhinovirus sp., HRV25; HRV-25, H1-HeLa cells
# Protocol: as §1, §2
# HRV-39 = test: as above; assay type: cell-based; details: Human rhinovirus sp., HRV39; HRV-39, H1-HeLa cells
# Protocol: as §1, §2
# HRV-9 = test: as above; assay type: cell-based; details: Human rhinovirus sp., HRV9; HRV-9, H1-HeLa cells
# Protocol: as §1, §2
# HRV-3 = test: as above; assay type: cell-based; details: Human rhinovirus sp., HRV3; HRV-3, H1-HeLa cells
# Protocol: as §1, §2
# HRV-10 = test: as above; assay type: cell-based; details: Human rhinovirus sp., HRV10; HRV-10, H1-HeLa cells
# Protocol: as §1, §2
# HRV-14 = test: as above; assay type: cell-based, human rhinovirus; details: Rhinovirus B, HRV14, H1-HeLa, HRV-14, H1-HeLa cells
# Protocol: as §1, §2
# HRV-1A = test: as above; assay type: cell-based, human rhinovirus; details: Rhinovirus A, HRV1A, H1-HeLa cells
# Protocol: as §1, §2
# HRV-16 = test: as above; assay type: cell-based; details: Human rhinovirus sp., HRV16; HRV-16, H1-HeLa cells
# Protocol: as §1, §2
# HRV-87 = test: as above; assay type: cell-based; details: Human rhinovirus sp., HRV87; HRV-87, H1-HeLa cells
# Protocol: as §1, §2
# HRV-2 = test: as above; assay type: cell-based, human rhinovirus; details: Rhinovirus A, HRV2; HRV-2, H1-HeLa cells
# Protocol: as §1, §2
# [3] = Cytotoxicity in uninfected cells of the anticoxsackieviral assay (XTT); assay type: cell-based; details: human, H1-HeLa cells, table line CAV-21
# Protocol: (§3) Coxsackievirus types A-21 (CAV-21) and B3 (CVB3) were purchased from American Type Culture Collection (ATCC, Rockville, Md.). Virus stocks were propagated and antiviral assays were performed in H1-HeLa cells (ATCC). Cells were grown in minimal essential medium with 10% fetal bovine serum (Life Technologies, Gaithersburg, Md.). The ability of the compounds of this invention to protect cells against either CAV-21 or CVB3 infection was measured by the XTT dye reduction method. This method is described in Weislow et al., J. Natl. Cancer Inst. (1989), vol. 81, 577-586. H1-HeLa cells were infected with CAV-21 or CVB3 at a multiplicity of infection (m.o.i.) of 0.025 or 0.075, respectively, or mock-infected with medium only. H1-HeLa cells were plated at 4×10^4 cells per well in a 96-well plate and incubated with appropriate concentrations of the test compound. One day (CVB3) or two days (CAV-21) later, XTT/PMS was added to test plates and the amount of formazan produced was quantified spectrophotometrically at 450/650 nm. The EC50 was calculated as the concentration of compound that increased the formazan production in compound-treated, virus-infected cells to 50% of that produced by compound-free, uninfected cells. […] The therapeutic index (TI) was calculated by dividing the CC50 by the EC50.
# MRC-5 cells = test: Cytotoxicity in uninfected cells of the anti-echoviral/anti-enteroviral assay (XTT); assay type: cell-based; details: table line ENT-70
# Protocol: (§4) Echovirus type 11 (ECHO 11) was purchased from ATCC (Rockville, Md.). Virus stocks were propagated and antiviral assays were performed in MRC-5 cells (ATCC). Cells were grown in minimal essential medium with 10% fetal bovine serum (Life Technologies, Gaithersburg, Md.). The ability of the compounds of this invention to protect cells against ECHO 11 infection was measured by the XTT dye reduction method (Weislow et al., J. Natl. Cancer Inst. (1989), vol. 81, 577-586). MRC-5 cells were infected with ECHO 11 at an m.o.i. of 0.003 or 0.004, respectively, or mock-infected with medium only. Infected or uninfected cells were added at 1×10^4 cells per well and incubated with appropriate concentrations of compound. Four days later, XTT/PMS was added to test plates, and the amount of formazan produced was quantified spectrophotometrically at 450/650 nm. The EC50 was calculated as the concentration of compound that increased the formazan production in compound-treated, virus-infected cells to 50% of that produced by compound-free, uninfected cells. […] The therapeutic index (TI) was calculated by dividing the CC50 by the EC50. Activity of the compounds against enterovirus type 70 (EV 70) may be measured by the same assay as described above in this section. […]
# [4] = as above; assay type: cell-based; details: human, MRC-5 cells, table line ECHO-11
# Protocol: as §4
# CAV-21 = test: Anticoxsackieviral cell culture assay (H1-HeLa, XTT); assay type: cell-based, Coxsackievirus type A-21; details: Coxsackievirus; CAV-21, H1-HeLa cells
# Protocol: as §3
# ECHO 11 = test: Anti-echoviral cell culture assay (MRC-5, XTT); assay type: cell-based, Echovirus type 11; details: Enterovirus B, MRC5; ECHO-11, MRC-5 cells
# Protocol: as §4
# EV 70 = test: Anti-enteroviral cell culture assay (MRC-5, XTT); assay type: cell-based, enterovirus type 70; details: Enterovirus D, MRC5; ENT-70, MRC-5 cells
# Protocol: as §4
# T1 sequence (P03303 1538-1719): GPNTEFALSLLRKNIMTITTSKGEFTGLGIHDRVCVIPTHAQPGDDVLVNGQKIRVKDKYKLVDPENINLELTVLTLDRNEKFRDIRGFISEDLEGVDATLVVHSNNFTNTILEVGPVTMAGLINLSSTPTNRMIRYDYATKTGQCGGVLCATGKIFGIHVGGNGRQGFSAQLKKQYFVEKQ
SMILES,kinact/KI [2] [M⁻¹ s⁻¹],EC50 (HRV-25) [nM],EC50 (HRV-39) [nM],EC50 (HRV-9) [nM],EC50 (HRV-3) [nM],EC50 (HRV-10) [nM],EC50 (HRV-14) [nM],EC50 (HRV-1A) [nM],CC50 (H1-HeLa cells; table line HRV-1A) [nM],CC50 (H1-HeLa cells; table line HRV-3) [nM],CC50 (H1-HeLa cells; table line HRV-9) [nM],CC50 (H1-HeLa cells; table line HRV-10) [nM],CC50 (H1-HeLa cells; table line HRV-25) [nM],CC50 (H1-HeLa cells; table line HRV-39) [nM],CC50 at 2 days ([1]; table line HRV-14) [nM],CC50 (H1-HeLa cells; table line HRV-2) [nM],CC50 (H1-HeLa cells; table line HRV-14) [nM],CC50 (H1-HeLa cells; table line HRV-16) [nM],CC50 (H1-HeLa cells; table line HRV-87) [nM],CC50 at 2 days ([1]; table line HRV-1A) [nM],also measured
"C#CC[C@H](CC(=O)c1ccc(-c2ccccc2Cl)[nH]1)C(=O)N[C@H](/C=C/C(=O)OCC)C[C@@H]1CCNC1=O [Compound 38, 4S-(2R-{2-[5-(2-Chloro-phenyl)-1H-pyrrol-2-yl]-2-oxo-ethyl}-pent-4-ynoylamino)-5-(2-oxo-pyrrolidin-3S-yl)-pent-2(trans)-enoic acid ethyl ester]",33000,1510,593,885,605,446,136,537,–,> 10000,> 10000,> 10000,> 10000,> 10000,–,> 10000,> 10000,> 10000,> 10000,> 10000,EC50 (HRV-16): 1490 nM; EC50 (HRV-87): 97 nM; EC50 (HRV-2): 353 nM
"CCOC(=O)/C=C/[C@H](C[C@@H]1CCNC1=O)NC(=O)[C@H](Cc1ccccc1)NC(=O)c1ccc(-c2cccc3ccccc23)[nH]1 [Compound 25, 4S-{2S-[(5-Naphthalen-1-yl-1H-pyrrole-2-carbonyl)-amino]-3-phenyl-propionylamino}-5-(2-oxo-pyrrolidin-3S-yl)-pent-2-enoic acid ethyl ester]",690000,–,–,–,–,148,34,89,> 10000,–,–,> 10000,–,–,> 10000,–,–,–,–,–,CC50 at 2 days [3]: > 10000 nM; CC50 (MRC-5 cells): > 10000 nM; CC50 at 4 days [4]: > 10000 nM; EC50 (CAV-21): 200 nM; EC50 (ECHO 11): 44 nM; EC50 (EV 70): 3 nM

# Continued by falling EC50 (HRV-25), values first:
kinact/KI [2] [M⁻¹ s⁻¹],EC50 (HRV-25) [nM],EC50 (HRV-39) [nM],EC50 (HRV-9) [nM],EC50 (HRV-3) [nM],EC50 (HRV-10) [nM],EC50 (HRV-14) [nM],EC50 (HRV-1A) [nM],SMILES,CC50 (H1-HeLa cells; table line HRV-1A) [nM],CC50 (H1-HeLa cells; table line HRV-3) [nM],CC50 (H1-HeLa cells; table line HRV-9) [nM],CC50 (H1-HeLa cells; table line HRV-10) [nM],CC50 (H1-HeLa cells; table line HRV-25) [nM],CC50 (H1-HeLa cells; table line HRV-39) [nM],CC50 at 2 days ([1]; table line HRV-14) [nM],CC50 (H1-HeLa cells; table line HRV-2) [nM],CC50 (H1-HeLa cells; table line HRV-14) [nM],CC50 (H1-HeLa cells; table line HRV-16) [nM],CC50 (H1-HeLa cells; table line HRV-87) [nM],CC50 at 2 days ([1]; table line HRV-1A) [nM],also measured
20100,1320,518,665,595,428,214,338,"C#CC[C@H](CC(=O)c1ccc(-c2ccccc2C)[nH]1)C(=O)N[C@H](/C=C/C(=O)OCC)C[C@@H]1CCNC1=O [Compound 39, 5-(2-Oxo-pyrrolidin-3S-yl)-4S-{2R-[2-oxo-2-(5-o-tolyl-1H-pyrrol-2-yl)-ethyl]-pent-4-ynoylamino}-pent-2(trans)-enoic acid ethyl ester]",–,> 10000,> 10000,> 10000,> 10000,> 10000,–,> 10000,> 10000,> 10000,> 10000,> 10000,EC50 (HRV-16): 952 nM; EC50 (HRV-87): 83 nM; EC50 (HRV-2): 214 nM
–,329,235,144,145,330,–,145,C#CC[C@H](CC(=O)c1ccc(-c2ccccc2C(F)(F)F)[nH]1)C(=O)N[C@H](/C=C/C(=O)OCC)C[C@@H]1CCNC1=O [Compound 36],> 10000,> 10000,> 10000,> 10000,> 10000,> 10000,> 10000,–,–,–,–,–,–
103000,316,180,119,65,27,150,54,"C#CC[C@H](NC(=O)c1ccc(-c2ccccc2C(F)(F)F)[nH]1)C(=O)N[C@H](/C=C/C(=O)OCC)C[C@@H]1CCNC1=O [Compound 29, 5-(2-Oxo-pyrrolidin-3S-yl)-4S-(2S-{[5-(2-trifluoromethyl-phenyl)-1H-pyrrole-2-carbonyl]-amino}-pent-4-ynoylamino)-pent-2(trans)-enoic acid ethyl ester]",> 10000,> 10000,> 10000,> 10000,> 10000,> 10000,> 10000,–,–,–,–,–,–
